Test: mn = molality of the nth substance listed, in mol/kg
Details: for surface tension liquid-gas: Pendant drop shape; for electrical conductivity: Liquid, Digital conductivity meter

CCCCCCCCCCCCCCCC[N+](C)(C)CCO.[Br-] [N-cetyl-hydroxyethyl-dimethyl ammonium bromide] + O
Details | electrical conductivity [S/m] | surface tension liquid-gas [mN/m]
298.15 K, m1 = 0.00016 | – | 61.83
298.15 K, m1 = 0.00033 | – | 53.61
298.15 K, m1 = 0.00049 | – | 45.49
298.15 K, m1 = 0.00059 | – | 41.63
298.15 K, m1 = 0.00069 | – | 39.31
298.15 K, m1 = 0.00074 | – | 38.39
298.15 K, m1 = 0.00075 | 0.0068 | –
298.15 K, m1 = 0.00078 | 0.007 | 37.61
298.15 K, m1 = 0.00081 | 0.0072 | –
298.15 K, m1 = 0.00083 | – | 37.58
298.15 K, m1 = 0.00084 | 0.0074 | –
298.15 K, m1 = 0.00088 | 0.0076 | 37.3
298.15 K, m1 = 0.00092 | 0.0078 | –
298.15 K, m1 = 0.00096 | 0.0079 | –
298.15 K, m1 = 0.00098 | – | 37.24
298.15 K, m1 = 0.00101 | 0.008 | –
298.15 K, m1 = 0.00106 | 0.0082 | –
298.15 K, m1 = 0.00108 | – | 37.15
298.15 K, m1 = 0.00112 | 0.0084 | –
298.15 K, m1 = 0.00118 | – | 37.12
298.15 K, m1 = 0.00119 | 0.0085 | –
298.15 K, m1 = 0.00126 | 0.0087 | –
298.15 K, m1 = 0.00135 | 0.0089 | –
298.15 K, m1 = 0.00144 | 0.0091 | –
298.15 K, m1 = 0.00156 | 0.0094 | –
298.15 K, m1 = 0.00169 | 0.0097 | –
298.15 K, m1 = 0.00184 | 0.0101 | –
298.15 K, m1 = 0.00202 | 0.0105 | –
303.15 K, m1 = 0.00075 | 0.0076 | –
303.15 K, m1 = 0.00078 | 0.0078 | –
303.15 K, m1 = 0.00081 | 0.0081 | –
303.15 K, m1 = 0.00084 | 0.0083 | –
303.15 K, m1 = 0.00088 | 0.0085 | –
303.15 K, m1 = 0.00092 | 0.0088 | –
303.15 K, m1 = 0.00096 | 0.009 | –
303.15 K, m1 = 0.00101 | 0.0091 | –
303.15 K, m1 = 0.00106 | 0.0093 | –
303.15 K, m1 = 0.00112 | 0.0095 | –
303.15 K, m1 = 0.00119 | 0.0097 | –
303.15 K, m1 = 0.00126 | 0.0099 | –
303.15 K, m1 = 0.00135 | 0.0101 | –
303.15 K, m1 = 0.00144 | 0.0104 | –
303.15 K, m1 = 0.00155 | 0.0107 | –
303.15 K, m1 = 0.00168 | 0.0111 | –
303.15 K, m1 = 0.00184 | 0.0114 | –
303.15 K, m1 = 0.00202 | 0.0119 | –
308.15 K, m1 = 0.00075 | 0.0083 | –
308.15 K, m1 = 0.00078 | 0.0086 | –
308.15 K, m1 = 0.00081 | 0.0089 | –
308.15 K, m1 = 0.00084 | 0.0092 | –
308.15 K, m1 = 0.00088 | 0.0095 | –
308.15 K, m1 = 0.00092 | 0.0097 | –
308.15 K, m1 = 0.00096 | 0.01 | –
308.15 K, m1 = 0.00101 | 0.0102 | –
308.15 K, m1 = 0.00106 | 0.0105 | –
308.15 K, m1 = 0.00112 | 0.0107 | –
308.15 K, m1 = 0.00119 | 0.0108 | –
308.15 K, m1 = 0.00126 | 0.0111 | –
308.15 K, m1 = 0.00134 | 0.0113 | –
308.15 K, m1 = 0.00144 | 0.0117 | –
308.15 K, m1 = 0.00155 | 0.012 | –
308.15 K, m1 = 0.00168 | 0.0125 | –
308.15 K, m1 = 0.00183 | 0.0129 | –
308.15 K, m1 = 0.00202 | 0.0134 | –
313.15 K, m1 = 0.00077 | 0.0094 | –
313.15 K, m1 = 0.0008 | 0.0098 | –
313.15 K, m1 = 0.00084 | 0.0101 | –
313.15 K, m1 = 0.00087 | 0.0105 | –
313.15 K, m1 = 0.00091 | 0.0108 | –
313.15 K, m1 = 0.00096 | 0.0111 | –
313.15 K, m1 = 0.00101 | 0.0114 | –
313.15 K, m1 = 0.00106 | 0.0118 | –
313.15 K, m1 = 0.00112 | 0.012 | –
313.15 K, m1 = 0.00118 | 0.0123 | –
313.15 K, m1 = 0.00126 | 0.0126 | –
313.15 K, m1 = 0.00134 | 0.0129 | –
313.15 K, m1 = 0.00144 | 0.0133 | –
313.15 K, m1 = 0.00155 | 0.0137 | –
313.15 K, m1 = 0.00168 | 0.0141 | –
313.15 K, m1 = 0.00183 | 0.0147 | –
313.15 K, m1 = 0.00201 | 0.0154 | –
318.15 K, m1 = 0.00074 | 0.0101 | –
318.15 K, m1 = 0.00077 | 0.0104 | –
318.15 K, m1 = 0.0008 | 0.0109 | –
318.15 K, m1 = 0.00084 | 0.0112 | –
318.15 K, m1 = 0.00087 | 0.0116 | –
318.15 K, m1 = 0.00091 | 0.0119 | –
318.15 K, m1 = 0.00096 | 0.0124 | –
318.15 K, m1 = 0.001 | 0.0128 | –
318.15 K, m1 = 0.00106 | 0.0132 | –
318.15 K, m1 = 0.00112 | 0.0137 | –
318.15 K, m1 = 0.00118 | 0.014 | –
318.15 K, m1 = 0.00126 | 0.0144 | –
318.15 K, m1 = 0.00134 | 0.0148 | –
318.15 K, m1 = 0.00143 | 0.0152 | –
318.15 K, m1 = 0.00154 | 0.0158 | –
318.15 K, m1 = 0.00167 | 0.0164 | –
318.15 K, m1 = 0.00183 | 0.0169 | –
318.15 K, m1 = 0.00201 | 0.0174 | –
323.15 K, m1 = 0.00074 | 0.0107 | –
323.15 K, m1 = 0.00077 | 0.0111 | –
323.15 K, m1 = 0.0008 | 0.0116 | –
323.15 K, m1 = 0.00083 | 0.012 | –
323.15 K, m1 = 0.00087 | 0.0124 | –
323.15 K, m1 = 0.00091 | 0.0129 | –
323.15 K, m1 = 0.00095 | 0.0134 | –
323.15 K, m1 = 0.001 | 0.014 | –
323.15 K, m1 = 0.00105 | 0.0143 | –
323.15 K, m1 = 0.00111 | 0.0151 | –
323.15 K, m1 = 0.00118 | 0.0157 | –
323.15 K, m1 = 0.00125 | 0.016 | –
323.15 K, m1 = 0.00134 | 0.0166 | –
323.15 K, m1 = 0.00143 | 0.0171 | –
323.15 K, m1 = 0.00154 | 0.0176 | –
323.15 K, m1 = 0.00167 | 0.0182 | –
323.15 K, m1 = 0.00182 | 0.0189 | –
323.15 K, m1 = 0.002 | 0.0196 | –
